The results in this text go back to patent EP4653437A2 (Innovo Therapeutics Inc., priority 2023, dated 2024).

Assay [1] concerns the target T1, human 15-PGDH (Homo sapiens, UniProt P15428).
T1 construct: purchased R&D System 5660-DH
T1 sequence (P15428 1-266): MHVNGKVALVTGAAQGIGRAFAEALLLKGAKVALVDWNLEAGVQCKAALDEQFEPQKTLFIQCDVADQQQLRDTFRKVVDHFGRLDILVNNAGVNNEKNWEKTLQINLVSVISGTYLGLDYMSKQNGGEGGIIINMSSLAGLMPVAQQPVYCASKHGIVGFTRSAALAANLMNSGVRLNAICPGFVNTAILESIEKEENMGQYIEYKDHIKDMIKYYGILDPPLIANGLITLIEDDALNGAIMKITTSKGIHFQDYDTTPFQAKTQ
Briefly: Evaluation of 15-PGDH inhibitory activity (fluorescence enzyme assay, NAD+/PGE2). In kind it is biochemical. The following applies: human 15-PGDH enzyme, fluorescence Vmax. The procedure:
15-PGDH inhibition activity of Example compounds was measured as follows. 6.7 ng of human 15-PGDH (R&D System# 5660-DH) enzyme (10 µL) was added to a black 96 well plate, 60 µL of buffer (50 mM Tris-HCl, pH 7.5, 0.01% Tween 20) was added, and 10 µL of 200 µM β-Nicotinamide adenine dinucleotide sodium salt (Sigma, Cat# N0632-5G) was added. 10 µL of (10x) compound solution in DMSO was added and reacted for 10 minutes at room temperature.

Assay [2] deals with A549 cells. Briefly: Measurement of PGE2-increasing activity in A549 cells (IL-1β stimulated, PGE2 quantified in supernatant). Type of assay: cell-based. The following applies: Homo sapiens, 24 h; concentration of 1 µM of each compound; IL-1β treated A549 cells; read-out: Increased PGE2 production in A549 cells. The essentials: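 PGE2 secreted into the supernatant was measured by immunoassay 24 h after treatment. Before treatment, A549 cells were cultured 24 h in 10% FBS F12K, washed, and placed in serum-free medium containing compound (DMSO 0.1% final) plus or minus IL-1β, incubated at 37 °C, 5% CO2.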

The IC50 is the point on the concentration scale where inhibition reaches its midpoint. For `O=C1NCCc2ccc(-c3cccc4c(C(=O)N5CCCCC5)cnn34)cc21` [Example 131, 7-(3-(piperidine-1-carbonyl)pyrazolo[1,5-a]pyridin-7-yl)-3,4-dihydroisoquinolin-1(2H)-one], the IC50 in assay [1] was ≤ 100 nM. In addition, the fold induction at 1 µM in assay [2] was > 1.5.

Consider `O=C(c1cnn2c(-c3ccc(-c4noc(=O)[nH]4)cc3)cccc12)N1CCCCC1` [Example 116, 3-(4-(3-(piperidine-1-carbonyl)pyrazolo[1,5-a]pyridin-7-yl)phenyl)-1,2,4-oxadiazol-5(4H)-one], for which the IC50 in assay [1] was ≤ 100 nM. Besides, the fold induction at 1 µM in assay [2] was > 1.5.

With `O=C(c1cnn2c(-c3cnc(-c4noc(=O)[nH]4)c(F)c3)cccc12)N1CCCCC1` [Example 247, 3-[3-fluoro-5-[3-(piperidine-1-carbonyl)pyrazolo[1,5-a]pyridin-7-yl]-2-pyridyl]-4H-1,2,4-oxadiazol-5-one], the IC50 in assay [1] was ≤ 100 nM. For the same compound, the fold induction at 1 µM in assay [2] was > 1.5.

Take `O=C(c1cnn2c(-c3cccc(-c4nnn[nH]4)c3)cccc12)N1CCCCC1` [Example 113, (7-(3-(1H-tetrazol-5-yl)phenyl)pyrazolo[1,5-a]pyridin-3-yl)(piperidin-1-yl)methanone]: in assay [1], the IC50 is ≤ 100 nM. Further, the fold induction at 1 µM in assay [2] was > 1.5.

For the compound `O=C(c1cnn2c(-c3ccc(Br)nc3)cccc12)N1CCCCC1` [Example 313, (7-(6-bromopyridin-3-yl)pyrazolo[1,5-a]pyridin-3-yl)(piperidin-1-yl)methanone], the IC50 in assay [1] was ≤ 100 nM. The fold induction at 1 µM in assay [2] was > 1.5.

`O=C(c1cnn2c(-c3cccc(-c4noc(=O)[nH]4)c3)cccc12)N1CCCCC1` [Example 115, 3-(3-(3-(piperidine-1-carbonyl)pyrazolo[1,5-a]pyridin-7-yl)phenyl)-1,2,4-oxadiazol-5(4H)-one]: the IC50 in assay [1] was ≤ 100 nM. The fold induction at 1 µM in assay [2] was > 1.5.

For `Cn1ccc(NC(=O)c2cncc(-c3cccc4c(C(=O)N5CCCCC5)cnn34)c2)n1` [Example 193, N-(1-methyl-1H-pyrazol-3-yl)-5-(3-(piperidine-1-carbonyl)pyrazolo[1,5-a]pyridin-7-yl)nicotinamide], in assay [1], the IC50 is ≤ 100 nM. Also, in assay [2], the fold induction at 1 µM was > 1.5.

On to `C[C@@H]1CCCN(C(=O)c2cnn3c(-c4ccc5c(c4)C(=O)NC5)cccc23)C1` [Example 385, (R)-6-(3-(3-methylpiperidine-1-carbonyl)pyrazolo[1,5-a]pyridin-7-yl)isoindolin-1-one], for which, in assay [1], the IC50 was ≤ 100 nM. Further, the fold induction at 1 µM in assay [2] was > 1.5.

As to `CNC(=O)c1ncc(-c2cccc3c(C(=O)N4CCCCC4)cnn23)cc1F` [Example 250, 3-fluoro-N-methyl-5-[3-(piperidine-1-carbonyl)pyrazolo[1,5-a]pyridin-7-yl]pyridine-2-carboxamide], the IC50 in assay [1] was ≤ 100 nM. The fold induction at 1 µM in assay [2] was > 1.5.

Turning to `O=C(O)c1ncc(-c2cccc3c(C(=O)N4CCCCC4)cnn23)cc1Cl` [Example 258, 3-chloro-5-[3-(piperidine-1-carbonyl)pyrazolo[1,5-a]pyridin-7-yl]pyridine-2-carboxylic acid], the IC50 in assay [1] is ≤ 100 nM. Also, in assay [2], the fold induction at 1 µM is < 1.5.

Consider `O=C(Nc1ccc(-c2cccc3c(C(=O)N4CCCCC4)cnn23)cc1)C1CCCCC1` [Example 102, N-(4-(3-(piperidine-1-carbonyl)pyrazolo[1,5-a]pyridin-7-yl)phenyl)cyclohexanecarboxamide], for which, in assay [1], the IC50 was ≤ 100 nM. In assay [2], the fold induction at 1 µM was < 1.5.

With `N#Cc1ccc(-c2cccc3c(C(=O)N4CCCCC4)cnn23)cc1` [Example 15, 4-(3-(piperidine-1-carbonyl)pyrazolo[1,5-a]pyridin-7-yl)benzonitrile], the IC50 in assay [1] was ≤ 100 nM. The fold induction at 1 µM in assay [2] is > 1.5.

For the compound `O=C(c1ncc(-c2cccc3c(C(=O)N4CCCCC4)cnn23)cc1F)N1CCOCC1` [Example 249, [7-[5-fluoro-6-(morpholine-4-carbonyl)-3-pyridyl]pyrazolo[1,5-a]pyridin-3-yl]-(1-piperidyl)methanone], in assay [1], the IC50 is ≤ 100 nM. The fold induction at 1 µM in assay [2] was < 1.5.

For the compound `CN1CCC(NC(=O)c2cccc(-c3cccc4c(C(=O)N5CCCCC5)cnn34)c2)CC1` [Example 33, N-(1-methylpiperidin-4-yl)-3-(3-(piperidine-1-carbonyl)pyrazolo[1,5-a]pyridin-7-yl)benzamide], in assay [1], the IC50 was ≤ 100 nM. For the same compound, the fold induction at 1 µM in assay [2] was > 1.5.

For `O=C1NCc2ccc(-c3cccc4c(C(=O)N5CC6(CC(F)C6)C5)cnn34)cc21` [Example 411, 6-(3-(6-fluoro-2-azaspiro[3.3]heptane-2-carbonyl)pyrazolo[1,5-a]pyridin-7-yl)isoindolin-1-one], in assay [1], the IC50 was ≤ 100 nM. In addition, in assay [2], the fold induction at 1 µM was > 1.5.

On to `O=C(NCC1CC1)c1ccc(-c2cccc3c(C(=O)N4CCCCC4)cnn23)cn1` [Example 80, N-(cyclopropylmethyl)-5-(3-(piperidine-1-carbonyl)pyrazolo[1,5-a]pyridin-7-yl)picolinamide], for which the IC50 in assay [1] was ≤ 100 nM. Besides, in assay [2], the fold induction at 1 µM is > 1.5.

On to `O=C(c1cnn2c(-c3ccc(-c4ncon4)cc3)cccc12)N1CCCCC1` [Example 352, [7-[4-(1,2,4-oxadiazol-3-yl)phenyl]pyrazolo[1,5-a]pyridin-3-yl]-(1-piperidyl)methanone], for which the IC50 in assay [1] is ≤ 100 nM. Besides, the fold induction at 1 µM in assay [2] was > 1.5.

As for `O=C(c1ccc(-c2cccc3c(C(=O)N4CCCCC4)cnn23)cc1)N1CCC1` [Example 61, azetidin-1-yl(4-(3-(piperidine-1-carbonyl)pyrazolo[1,5-a]pyridin-7-yl)phenyl)methanone], in assay [1], the IC50 was ≤ 100 nM. The fold induction at 1 µM in assay [2] is > 1.5.

Regarding `O=C(COc1ccc(Cl)cc1)Nc1cncc(-c2cccc3c(C(=O)N4CCCCC4)cnn23)c1` [Example 406, 2-(4-chlorophenoxy)-N-(5-(3-(piperidine-1-carbonyl)pyrazolo[1,5-a]pyridin-7-yl)pyridin-3-yl)acetamide], the IC50 in assay [1] is ≤ 100 nM. Also, the fold induction at 1 µM in assay [2] is > 1.5.

Consider `O=C(Cc1ccccc1)Nc1cncc(-c2cccc3c(C(=O)N4CCCCC4)cnn23)c1` [Example 389, 2-phenyl-N-(5-(3-(piperidine-1-carbonyl)pyrazolo[1,5-a]pyridin-7-yl)pyridin-3-yl)acetamide], for which, in assay [1], the IC50 was ≤ 100 nM. Further, the fold induction at 1 µM in assay [2] was > 1.5.

As to `O=C(c1ccc(-c2cccc3c(C(=O)N4CCCCC4)cnn23)cn1)N1CC2(CCC2)C1` [Example 214, 2-azaspiro[3.3]heptan-2-yl-[5-[3-(piperidine-1-carbonyl)pyrazolo[1,5-a]pyridin-7-yl]-2-pyridyl]methanone], the IC50 in assay [1] is ≤ 100 nM. Also, the fold induction at 1 µM in assay [2] is > 1.5.

Take `O=C(c1cnn2c(-c3ccc(N4CC(F)(F)C4)nc3)cccc12)N1CCCCC1` [Example 209, (7-(6-(3,3-difluoroazetidin-1-yl)pyridin-3-yl)pyrazolo[1,5-a]pyridin-3-yl)(piperidin-1-yl)methanone]: the IC50 in assay [1] was ≤ 100 nM. In addition, the fold induction at 1 µM in assay [2] is > 1.5.

Turning to `O=C1NCCc2ccc(Nc3cccc4c(C(=O)N5CCCCC5)cnn34)cc21` [Example 211, 7-[[3-(piperidine-1-carbonyl)pyrazolo[1,5-a]pyridin-7-yl]amino]-3,4-dihydro-2H-isoquinolin-1-one], the IC50 in assay [1] is ≤ 100 nM. For the same compound, the fold induction at 1 µM in assay [2] is > 1.5.

`O=C(c1cnn2c(-c3ccc4c(=O)[nH]ncc4c3)cccc12)N1CCCCC1` [Example 233, 6-(3-(piperidine-1-carbonyl)pyrazolo[1,5-a]pyridin-7-yl)phthalazin-1(2H)-one]: the IC50 in assay [1] is ≤ 100 nM. Further, in assay [2], the fold induction at 1 µM is > 1.5.

As to `COc1cccc(Sc2cccc3c(C(=O)N4CCCCC4)cnn23)c1` [Example 194, (7-((3-methoxyphenyl)thio)pyrazolo[1,5-a]pyridin-3-yl)(piperidin-1-yl)methanone], the IC50 in assay [1] is ≤ 100 nM. Also, in assay [2], the fold induction at 1 µM was < 1.5.

Turning to `CN1Cc2ccc(-c3cccc4c(C(=O)N5CCCCC5)cnn34)cc2C1=O` [Example 141, 2-methyl-6-(3-(piperidine-1-carbonyl)pyrazolo[1,5-a]pyridin-7-yl)isoindolin-1-one], in assay [1], the IC50 is ≤ 100 nM. Besides, the fold induction at 1 µM in assay [2] is > 1.5.

On to `CN1CC(NC(=O)c2cncc(-c3cccc4c(C(=O)N5CCCCC5)cnn34)c2)C1` [Example 202, N-(1-methylazetidin-3-yl)-5-[3-(piperidine-1-carbonyl)pyrazolo[1,5-a]pyridin-7-yl]pyridine-3-carboxamide], for which the IC50 in assay [1] was ≤ 100 nM. Further, the fold induction at 1 µM in assay [2] was > 1.5.

`O=C(c1cnn2c(-c3ccc(-c4noc(=O)[nH]4)cc3F)cccc12)N1CCCCC1` [Example 295, 3-[3-fluoro-4-[3-(piperidine-1-carbonyl)pyrazolo[1,5-a]pyridin-7-yl]phenyl]-4H-1,2,4-oxadiazol-5-one]: the 50% inhibitory concentration (IC50) in assay [1] was ≤ 100 nM. Besides, the fold induction at 1 µM in assay [2] is > 1.5.
